One test relates to CD4+ T splenocytes. Put plainly: Collagen-induced arthritis (CIA) mouse model, ex vivo T splenocyte proliferation. The class given is in vivo. The note with it: DBA/1 CIA mice, peptide i.v. day −1, +7, +14, +20; 100 μg CII/mL, CFSE assay by FACS. The procedure: Next, P140 peptide was administered in a model of mice that develop a RA-like disease (we anticipated to use this mouse model as a negative control of MRL/lpr-lupus prone mice). This model, called collagen-induced arthritis (CIA) mouse model, is the most commonly studied autoimmune model of RA. In this model, autoimmune arthritis is induced by immunizing DBA/1 mice with an emulsion of complete Freund's adjuvant (CFA) and type II collagen (CII), and typically, the first signs of arthritis appear in 21-28 days after immunization (Brand et al., 2007). CIA shares several pathological features with human RA, and CII is a major protein in cartilage, the target tissue of RA. Pathological features include synovial hyperplasia, mononuclear cell infiltration, and cartilage degradation. Susceptibility in these mice is linked to the expression of specific MHC class II genes, DBA/1 have H-2^q haplotype.
P140 peptide was thus administrated intravenously to DBA/1 mice at day −1, +7, +14 and +20 in a setting close to the one we used in MRL/lpr mice ([…]). CII in CFA was injected at days+1 and +21 (200 μg, intradermal route). Mouse weight and their clinical score were followed using very classical procedure. Biological parameters were also evaluated (i.e. T cell response, antibody response, joint histology, etc).
(In general: In flow cytometry, cells or beads pass a laser one at a time.)

Another test has as its system Balb/c mice. Put plainly: 31-day HDM-induced asthma model, BAL cells. In kind it is in vivo, mouse. The note with it: for B cells / DCs / Eosinophils / Macrophages / Neutrophils / T cells / Total cells: BAL, HDM-sensitized, P140 i.v. 4 mg/kg day 25, individual mice. The procedure:
The aim of this study was to evaluate the effect of the P140 phosphopeptide administered systemically (intravenously) in a 31-day model of HDM-induced asthma in mice. The P140 phosphopeptide was solubilized in sterile water (Braun) and 10× concentrate sterile saline was added to adjust osmolarity to 300 mosm. Osmolarity was controlled with a micro osmometer (Löser, type 15) and validated (303 mosm). The P140 phosphopeptide was used in vivo at the dose of 4 mg/kg by intravenous (i.v.) routes. Control animals received equivalent volumes (2 ml/kg) of saline (Table 8).
Nine-week-old male Balb/c mice were sensitized by intranasal (i.n.) administration of HDM extract (Stallergenes): 1 μg in 25 μl saline on days 0, 1, 2, 3, 4, and 10 μg on days 14 and 21. Mice were challenged by i.n. administration of HDM (1 μg) and/or saline on days 28, 29 and 30. Mice were treated by i.v. injection (2 ml/kg) of P140 or solvent on day 25 (see FIG. 14).
BAL was performed after airway responsiveness measurement twenty-four hours after HDM challenge as described (Daubeuf et al. 2012). Mice were anaesthetized IP (Ketamine 150 mg/kg—Xylasine 10 mg/kg). Blood was collected from the heart, centrifuged at 10,000 g for 2 min and serum stored at −20° C.
After semi-excision of the trachea, a plastic cannula was inserted, and airspace washed with 0.5 ml of 0.9% NaCl injected with a 1 ml syringe. This procedure was performed 10 times. The initial concentrated supernatant of the 2 first lavages (volume=2×0.5 ml administered, approximately 0.5 ml recovered) was collected for cytokine measurements. The remaining BAL fluid was centrifuged (300 g for 5 min, 4° C.), and cell pellets pooled. The cell pellet was suspended in 500 μl of 0.9% NaCl and used for total cell counts evaluated on a Muse® Cell Analyser (Millipore). Differential cell counts were assessed by flow cytometry (LSRII® cytometer, BD Bioscience). BAL cells were added with FCblock (0.5 μl, 553142, BD Bioscience) in a black microplate, incubated for 20 min at room temperature. Then, marker antibodies were added: CD11c-FITC (557400, BD bioscience), Gr-1-PeeFluor610 (61-5931-82, eBioscience), F4/80-PE (12-4801-82, eBioscience), CD11b-APC-Cy7 (557657, BD bioscience), CD45-AlexaFluor700 (103128, BioLegend), CD3-BV605 (564009, BD bioscience), CD19-PE-Cy7 (552854, BD bioscience). Antibodies were incubated with BAL cells for 30 min at room temperature before DAPI (5 μl, BD bioscience) addition, and flow cytometry was performed immediately.
All mice were sensitized to HDM on days 0, 1, 2, 3, 4, 14, 21, and challenged either with saline ([…]) or HDM (challenge with allergen). Results are presented as means±SEM. Differences between groups were tested for statistical significance using Student's t test for inflammatory cells and a two-way ANOVA followed by Bonferroni post-test for airway responses.

Setting [1] is: saline-challenged (chronic asthma).
Where [2] appears, read: chronic asthma (saline-challenged), P140 4 mg/kg i.v. day 25.
Setting [3] is: chronic asthma (saline-challenged), P140 4 mg/kg i.v. day 25, non-significant.

“And” between values parts separate entries of the source, which are not always exact repeats. Identical values can stand only once. Numbered stars: 1 amine (or outer) side, 2 acyl side, 3 side chain; on linkers, the order of the positions; unused ones are H or OH. Square brackets hold non-standard residues; d marks the D form. Peptide text beside a SMILES is read from it. ξ: configuration not given here. X1 = CSCC[C@H](NC(=N)[C@H](Cc1c[nH]cn1)N[*:1])C(=O)[*:2]; pS = N[C@@H](COP(=O)(O)O)C(=O)O; Ile(3ξ) = CCC(C)[C@H](N)C(=O)O

With `CCC(C)[C@H](NC(=O)[C@H](Cc1ccccc1)NC(=O)[C@H](C)NC(=O)[C@H](Cc1ccc(O)cc1)NC(=O)CNC(=O)[C@H](CCCNC(=N)N)NC(=O)[C@@H]1CCCN1C(=O)[C@H](CCCCN)NC(=O)CNC(=O)[C@H](COP(=O)(O)O)NC(=O)[C@H](CCCNC(=N)N)NC(=O)[C@H](CCCCN)NC(=O)[C@H](CO)NC(=O)[C@H](Cc1ccc(O)cc1)NC(=O)[C@@H](NC(=O)[C@H](CCSC)NC(=N)[C@H](Cc1c[nH]cn1)NC(=O)[C@@H](NC(=O)[C@@H](N)CCCNC(=N)N)C(C)CC)C(C)C)C(=O)N[C@@H](CCC(=O)O)C(=O)N[C@@H](Cc1ccc(O)cc1)C(=O)O` (some centres unmarked) [Compound P140] (H-R[Ile(3ξ)][X1]VYSKR[pS]GKPRGYAF[Ile(3ξ)]EY-OH), the “CD4+ T splenocytes proliferation ex vivo in the presence of CII” value in the test on CD4+ T splenocytes is listed as “strongly diminished”. In the test on Balb/c mice (HDM-challenged (HDM + P140)), the B cells is 59 092 and 102 246 and 42 085 and 25 443 and 116 814 and 115 000 and 53 947 and 170 980; the DCs was 1 034 and 2 238 and 1 793 and 242 and 586 and 1 350 and 733 and 1 928; the Eosinophils is 955 824 and 1 404 942 and 636 065 and 342 046 and 1 283 190 and 1 036 803 and 538 210 and 1 010 666; the Macrophages is 58 705 and 118 771 and 314 326 and 125 002 and 34 364 and 38 709 and 29 121 and 73 491. In the test with Balb/c mice (HDM-challenged (HDM + P140)), the Neutrophils is 606 700 and 510 027 and 500 004 and 147 616 and 371 317 and 487 119 and 284 503 and 24 426; the T cells was 400 329 and 735 865 and 383 074 and 243 813 and 469 834 and 502 985 and 334 784 and 1 056 303; the Total cells was 2140000 and 2992000 and 2190000 and 1010000 and 2310000 and 2220000 and 1270000 and 2410000. Moreover, in the test on Balb/c mice (setting [1]), the B cells was 2 297 and 44 668 and 22 879 and 11 101 and 7 660; the DCs was 0 and 484 and 461 and 319 and 160; the Eosinophils is 124 514 and 450 346 and 448 074 and 205 568 and 239 527; the Macrophages was 130 734 and 267 885 and 360 987 and 177 815 and 73 725. In addition, in the test on Balb/c mice (setting [1]), the Neutrophils was 2 584 and 35 734 and 23 986 and 34 836 and 2 394; the T cells was 57 711 and 323 623 and 294 011 and 208 439 and 86 810; the Total cells was 448000 and 1390000 and 1510000 and 815000 and 484000. Also, the “Inflammatory cell recruitment in BAL” value in the test with Balb/c mice (HDM-challenged mice, vs solvent group) is on record as “no effect”. In the test with Balb/c mice (setting [2]), the “Increase of number of macrophages in BAL vs solvent group” value is on record as 4.5 fold and the “Number of neutrophils in BAL, change vs solvent group” value was −71%. Also, in the test with Balb/c mice (setting [3]), the “Number of B cells in BAL, change vs solvent group” value was −40% and the “Number of eosinophils in BAL, change vs solvent group” value was −25%.
